Data as given in article PMC7144934, “Design, Synthesis and Biological Evaluation of Phenyl Urea Derivatives as IDO1 Inhibitors” (Molecules, 2020).

Experiments:
[1] = molecular target: T1, Recombinant human IDO1 (rhIDO1) (Homo sapiens, UniProt P14902); assay: Enzyme assay for IDO1 inhibition; type: biochemical; conditions: rhIDO1 enzyme assay; for IC50: 37 °C, 45 min
T1 construct: made in house

[2] = molecular target: T2, Recombinant human TDO (rhTDO) (Homo sapiens, UniProt P48775); assay: Enzyme assay for TDO inhibition; type: biochemical; conditions: 37 °C, 45 min
T2 construct: made in house
T2 sequence (P48775 whole entry): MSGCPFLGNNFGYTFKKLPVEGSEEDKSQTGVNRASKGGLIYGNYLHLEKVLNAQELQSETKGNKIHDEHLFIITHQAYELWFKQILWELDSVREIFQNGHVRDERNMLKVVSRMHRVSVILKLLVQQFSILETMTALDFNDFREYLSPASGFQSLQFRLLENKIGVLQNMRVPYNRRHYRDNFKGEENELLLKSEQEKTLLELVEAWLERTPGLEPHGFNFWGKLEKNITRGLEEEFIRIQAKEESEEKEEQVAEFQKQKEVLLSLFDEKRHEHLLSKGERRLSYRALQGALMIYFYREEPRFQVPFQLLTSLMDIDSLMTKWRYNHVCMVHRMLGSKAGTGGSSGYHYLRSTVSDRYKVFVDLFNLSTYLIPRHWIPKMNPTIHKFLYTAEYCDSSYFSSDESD
Method: Recombinant human IDO1 and TDO were expressed and purified according to the reported procedures. The assay was performed according to the literature: A standard reaction mixture (100 µL) containing 100 mM potassium phosphate buffer (pH 6.5), 40 mM ascorbic acid (neutralized with NaOH), 200 µg/mL catalase, 20 µM methylene blue and 0.05 µM rhIDO1 or rhTDO was added to the solution containing the substrate L-tryptophan and the test sample at a determined concentration. The reaction was carried out at 37 °C for 45 min and stopped by adding 20 µL of 30% (w/v) trichloroacetic acid. After heating at 65 °C for 15 min, 100 µL of 2% (w/v) p-dimethylaminobenzaldehyde in acetic acid was added to each well. The yellow pigment derived from kynurenine was measured at 492 nm using a SYNERGY-H1 microplate reader (Biotek Instruments, Inc., Winooski, VT, USA). IC50 was analyzed using the GraphPad Prism 8.0 software (GraphPad Software, San Diego, CA, USA).

T1 sequence (P14902 whole entry): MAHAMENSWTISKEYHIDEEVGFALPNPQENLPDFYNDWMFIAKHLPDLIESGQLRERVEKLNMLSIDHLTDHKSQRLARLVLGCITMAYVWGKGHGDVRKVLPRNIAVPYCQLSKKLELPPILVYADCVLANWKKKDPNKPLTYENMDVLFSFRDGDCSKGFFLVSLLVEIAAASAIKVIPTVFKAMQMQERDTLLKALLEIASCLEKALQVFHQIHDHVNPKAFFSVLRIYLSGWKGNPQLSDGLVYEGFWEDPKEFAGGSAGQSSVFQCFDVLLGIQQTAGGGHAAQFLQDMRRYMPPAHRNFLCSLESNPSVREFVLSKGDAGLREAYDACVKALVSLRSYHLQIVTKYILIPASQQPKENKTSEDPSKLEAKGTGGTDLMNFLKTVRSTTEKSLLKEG

CCOC(=O)CC(c1ccc(N2CC(C)CC(C)C2)c(NC(=O)Nc2ccccc2)c1)C(F)(F)F (stereo not drawn) [g1, 3-[4-(3,5-dimethylpiperidin-1-yl)-3-(3-phenylureido)-phenyl]-4,4,4-trifluorobutyric Acid Ethyl Ester]
IC50 [1]: > 100 µM
IC50 [2]: > 100 µM

CCOC(=O)CC(c1ccc(N2CC(C)CC(C)C2)c(NC(=O)Nc2ccc(C)cc2)c1)C(F)(F)F (stereo not drawn) [g2, 3-[4-(3,5-dimethylpiperidin-1-yl)-3-(3-p-tolylureido)phenyl]-4,4,4-trifluorobutyric Acid Ethyl Ester]
IC50 [1]: > 100 µM
IC50 [2]: > 100 µM

CCOC(=O)CC(c1ccc(N2CC(C)CC(C)C2)c(NC(=O)Nc2ccc(Cl)cc2)c1)C(F)(F)F (stereo not drawn) [g3, 3-[3-[3-(4-chlorophenyl)-ureido]-4-(3,5-dimethylpiperidin-1-yl)-phenyl]-4,4,4-trifluorobutyric Acid Ethyl Ester]
IC50 [1]: > 100 µM
IC50 [2]: > 100 µM

Cc1ccc(NC(=O)Nc2cc(C(CC(=O)O)C(F)(F)F)ccc2N2CC(C)CC(C)C2)cc1 (stereo not drawn) [i2, 3-[4-(3,5-dimethylpiperidin-1-yl)-3-(3-p-tolylureido)phenyl]-4,4,4-trifluorobutyric Acid]
IDO1 inhibitory activity (in words) [1]: more potent IDO1 inhibitory activity than the unsubstituted i1
IC50 [1]: 8.61 µM
IC50 [2]: > 100 µM

CC1CC(C)CN(c2ccc(C(CC(=O)O)C(F)(F)F)cc2NC(=O)Nc2ccc(Cl)cc2)C1 (stereo not drawn) [i3, 3-[3-[3-(4-chlorophenyl)ureido]-4-(3,5-dimethylpiperidin-1-yl)-phenyl]-4,4,4-trifluorobutyric Acid]
IDO1 inhibitory activity (in words) [1]: more potent IDO1 inhibitory activity than the unsubstituted i1
IC50 [1]: 5.69 µM
IC50 [2]: > 100 µM

CC1CC(C)CN(c2ccc(C(CC(=O)O)C(F)(F)F)cc2NC(=O)NC2CCCCC2)C1 (stereo not drawn) [i4, 3-[3-(3-cyclohexylureido)-4-(3,5-dimethylpiperidin-1-yl)phenyl]-4,4,4-trifluorobutyric Acid]
IDO1 inhibitory activity (in words) [1]: loss of inhibition
IC50 [1]: > 100 µM
IC50 [2]: > 100 µM

CCCCNC(=O)Nc1cc(C(CC(=O)O)C(F)(F)F)ccc1N1CC(C)CC(C)C1 (stereo not drawn) [i5, 3-[3-(3-butylureido)-4-(3,5-dimethylpiperidin-1-yl)-phenyl]-4,4,4-trifluorobutyric Acid]
IDO1 inhibitory activity (in words) [1]: loss of inhibition
IC50 [1]: > 100 µM
IC50 [2]: > 100 µM

Cc1ccccc1NC(=O)Nc1cc(C(CC(=O)O)C(F)(F)F)ccc1N1CC(C)CC(C)C1 (stereo not drawn) [i6, 3-[4-(3,5-dimethylpiperidin-1-yl)-3-(3-o-tolylureido)phenyl]-4,4,4-trifluorobutyric Acid]
IDO1 inhibitory activity (in words) [1]: lost all IDO1 inhibitory activity
IC50 [1]: > 100 µM
IC50 [2]: > 100 µM

Cc1cccc(NC(=O)Nc2cc(C(CC(=O)O)C(F)(F)F)ccc2N2CC(C)CC(C)C2)c1 (stereo not drawn) [i7, 3-[4-(3,5-dimethylpiperidin-1-yl)-3-(3-m-tolylureido)phenyl]-4,4,4-trifluorobutyric Acid]
IDO1 inhibitory activity (in words) [1]: lost all IDO1 inhibitory activity
IC50 [1]: > 100 µM
IC50 [2]: > 100 µM

CC1CC(C)CN(c2ccc(C(CC(=O)O)C(F)(F)F)cc2NC(=O)Nc2ccccc2Cl)C1 (stereo not drawn) [i8, 3-[3-[3-(2-chlorophenyl)ureido]-4-(3,5-dimethylpiperidin-1-yl)-phenyl]-4,4,4-trifluorobutyric Acid]
IDO1 inhibitory activity (in words) [1]: lost all IDO1 inhibitory activity
IC50 [1]: > 100 µM
IC50 [2]: > 100 µM

CC1CC(C)CN(c2ccc(C(CC(=O)O)C(F)(F)F)cc2NC(=O)Nc2cccc(Cl)c2)C1 (stereo not drawn) [i9, 3-[3-[3-(3-chlorophenyl)ureido]-4-(3,5-dimethylpiperidin-1-yl)-phenyl]-4,4,4-trifluorobutyric Acid]
IDO1 inhibitory activity (in words) [1]: lost all IDO1 inhibitory activity
IC50 [1]: > 100 µM
IC50 [2]: > 100 µM

CC1CC(C)CN(c2ccc(C(CC(=O)O)C(F)(F)F)cc2NC(=O)Nc2ccccc2C#N)C1 (stereo not drawn) [i10, 3-[3-[3-(2-cyanophenyl)ureido]-4-(3,5-dimethylpiperidin-1-yl)-phenyl]-4,4,4-trifluorobutyric Acid]
IDO1 inhibitory activity (in words) [1]: lost all IDO1 inhibitory activity
IC50 [1]: > 100 µM
IC50 [2]: > 100 µM
